Among the data in PubChem BioAssay (NCI) are GI50 and TGI values, retold here.

Some test systems named below: CCRF-CEM leukemia; UACC-257 melanoma; UO-31 renal; SF-539 CNS; IGROV1 ovarian; MALME-3M melanoma; OVCAR-4 ovarian; SN12C renal; HS 578T breast; SR leukemia.
Holding throughout (assay): NCI anticancer screen, dose series, 48 h

Several values for one entry are separate records, joined by “and”; a condition that tells them apart may be missing. Identical values can stand only once.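 Exposure lasted 48 hours, with cells grown in 96-well plates and compounds tested at five concentrations. GI50 marks 50% less growth. Definition used: TGI = concentration required for complete inhibition of growth.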 Where only a bound is given, the exact number is not on record here.

In the case of `Nc1c2ccccc2nc2ccccc12` (tested in a mixture with another compound), the GI50 in the experiment on CCRF-CEM leukemia is 2.72 µM; in the experiment with UACC-257 melanoma, 1.87 µM; in the experiment with UO-31 renal, 1.41 µM; in the experiment on SF-539 CNS, 2.44 µM; in the experiment on IGROV1 ovarian, 2.72 µM; with MALME-3M melanoma, 2.34 µM. Also, the GI50 in the experiment on OVCAR-4 ovarian is 1.84 µM; in the experiment with SN12C renal, 1.53 µM; in the experiment on HS 578T breast, 3.06 µM. In addition, the TGI with CCRF-CEM leukemia was determined as 77.3 µM; in the experiment with UACC-257 melanoma, 4.48 µM; with UO-31 renal it was 3.84 µM; with SF-539 CNS it was 8.26 µM; with IGROV1 ovarian, 7.89 µM; with MALME-3M melanoma it was 5.28 µM. In addition, the results for the TGI in the experiment on OVCAR-4 ovarian, in the experiment on SN12C renal and in the experiment with HS 578T breast were 6.9 µM, 12.2 µM and 17.4 µM, respectively.
As for `Cn1c(=N)n[n+]([O-])c2ccccc21`, the TGI with CCRF-CEM leukemia is 21.2 µM and 48.7 µM; in the experiment with SR leukemia, 14.7 µM and 9.32 µM; in the experiment on UACC-257 melanoma it was 5.51 µM and 3.92 µM; in the experiment with UO-31 renal, 8.83 µM and 17.6 µM; in the experiment with SF-539 CNS, 3.67 µM and 2.98 µM; in the experiment on IGROV1 ovarian, 10.7 µM and 11.6 µM. Moreover, the TGI in the experiment on MALME-3M melanoma was 6.15 µM; in the experiment with OVCAR-4 ovarian it was 7.55 µM and 5.23 µM; with SN12C renal it was 3.29 µM and 4.19 µM; with HS 578T breast, 6.77 µM and 18.5 µM. The GI50 with SR leukemia was 3.87 µM; in the experiment on HS 578T breast it was 2.85 µM and 5.89 µM.
With `N#CSc1ccc(S(N)(=O)=O)cc1`, the TGI in the experiment with CCRF-CEM leukemia is 88.7 µM; with UACC-257 melanoma it was above 100 µM; with UO-31 renal it was 35.2 µM; in the experiment on SF-539 CNS, 68 µM; in the experiment with IGROV1 ovarian, above 100 µM; in the experiment with MALME-3M melanoma it was above 100 µM. In addition, the TGI with OVCAR-4 ovarian is 93.1 µM; with SN12C renal, above 100 µM; with HS 578T breast, above 100 µM.
For `CCCCCCNCCCNc1c2ccccc2nc2cccc([N+](=O)[O-])c12`, the GI50 with CCRF-CEM leukemia was 0.0277 µM; with UACC-257 melanoma, 0.059 µM; in the experiment with UO-31 renal, 0.145 µM; with SF-539 CNS, 0.0507 µM; in the experiment on IGROV1 ovarian, 0.0252 µM; with MALME-3M melanoma it was 0.0168 µM. Moreover, the GI50 in the experiment on OVCAR-4 ovarian is 0.0115 µM. Besides, the TGI in the experiment with CCRF-CEM leukemia was 0.17 µM and 0.182 µM; in the experiment on UACC-257 melanoma it was 0.252 µM and 0.261 µM; in the experiment with UO-31 renal it was 0.393 µM and 0.331 µM; with SF-539 CNS it was 0.307 µM and 0.225 µM; in the experiment with IGROV1 ovarian it was 0.0713 µM and 0.186 µM; with MALME-3M melanoma, 0.0628 µM and 0.0572 µM. For the same compound, the TGI is 0.0419 µM and 0.0486 µM in the experiment with OVCAR-4 ovarian; 0.12 µM with SN12C renal; 0.21 µM and 0.434 µM with HS 578T breast.
Turning to `O=C(O)c1ccccc1Nc1ccc2nnc(-c3ccncc3)n2n1`, the GI50 was 4.28 µM in the experiment on CCRF-CEM leukemia; 5.23 µM with SR leukemia; 10.6 µM in the experiment on UACC-257 melanoma; 3.81 µM in the experiment with UO-31 renal; 14.6 µM in the experiment with SF-539 CNS; 5.29 µM with IGROV1 ovarian. The GI50 in the experiment with MALME-3M melanoma is 7.97 µM; in the experiment on SN12C renal, 3.56 µM; in the experiment with HS 578T breast, 18.3 µM. The TGI with CCRF-CEM leukemia is above 100 µM; in the experiment on SR leukemia it was above 100 µM; in the experiment on UACC-257 melanoma it was 33.6 µM; with UO-31 renal, 15.5 µM; with SF-539 CNS it was 55.8 µM; in the experiment with IGROV1 ovarian, 22.9 µM. Besides, the figures for the TGI in the experiment with MALME-3M melanoma, in the experiment on SN12C renal and in the experiment with HS 578T breast were 26.3 µM, 17.1 µM and 53.9 µM, respectively.
As to `CN1CCN(CC(=O)N2c3cccc4cccc(c34)N(C(=O)CN3CCN(C)CC3)C2c2cn(-c3ccccc3)nc2-c2cccc([N+](=O)[O-])c2)CC1`, the GI50 is 1.69 µM with CCRF-CEM leukemia; 1.86 µM in the experiment with UACC-257 melanoma; 1.32 µM in the experiment with UO-31 renal; 1.69 µM in the experiment with SF-539 CNS; 1.73 µM with IGROV1 ovarian; 1.85 µM in the experiment with MALME-3M melanoma. Moreover, the GI50 in the experiment on OVCAR-4 ovarian is 2.25 µM; with SN12C renal it was 1.99 µM; in the experiment with HS 578T breast it was 1.95 µM. Moreover, the TGI came out at 4.45 µM in the experiment on CCRF-CEM leukemia; 3.69 µM with UACC-257 melanoma; 2.75 µM in the experiment on UO-31 renal; 3.19 µM with SF-539 CNS; 3.71 µM in the experiment on IGROV1 ovarian; 3.49 µM in the experiment with MALME-3M melanoma. The TGI is 5.24 µM in the experiment with OVCAR-4 ovarian, 4.28 µM in the experiment on SN12C renal and 5.71 µM in the experiment with HS 578T breast.
As to `Nc1ncnc2c1ncn2C1OC(COC2C(CO)OC(OC(C(=O)O)C(O)C(OP(=O)(O)O)C(O)C(=O)O)C(O)C2O)C(O)C1O` (stereo not given), the TGI in the experiment with CCRF-CEM leukemia, in the experiment on SR leukemia, with UACC-257 melanoma, in the experiment on SF-539 CNS, in the experiment on IGROV1 ovarian and in the experiment on MALME-3M melanoma was above 100 µM each time. The figures for the TGI in the experiment with OVCAR-4 ovarian and in the experiment with HS 578T breast were above 100 µM and 91.2 µM, respectively.
Take `COc1cc2c3c(n(CCCN4CCCC(O)C4)c(=O)c2cc1OC)-c1cc2c(cc1C3=O)OCO2` (stereo not given): the GI50 in the experiment with CCRF-CEM leukemia was 0.00738 µM; in the experiment on UACC-257 melanoma, 7.74 µM; with UO-31 renal it was 0.96 µM; with SF-539 CNS, below 0.005 µM; in the experiment with IGROV1 ovarian, 0.836 µM; in the experiment on MALME-3M melanoma, 5.71 µM. The GI50 in the experiment on OVCAR-4 ovarian was 1.07 µM; in the experiment with SN12C renal, 0.162 µM; in the experiment with HS 578T breast, 0.874 µM. The TGI in the experiment with CCRF-CEM leukemia is 0.278 µM; in the experiment on UACC-257 melanoma, 15.1 µM; with UO-31 renal, 2.24 µM; with SF-539 CNS it was 0.0384 µM; in the experiment with IGROV1 ovarian, 8.87 µM; in the experiment with MALME-3M melanoma, 14.8 µM. Moreover, the TGI came to 2.68 µM with OVCAR-4 ovarian, 0.964 µM in the experiment with SN12C renal and 2.11 µM in the experiment on HS 578T breast.
`Oc1c(CN2CCN(c3ccccc3F)CC2)cc(Br)c2cccnc12`: the GI50 with CCRF-CEM leukemia is 0.355 µM; in the experiment on SR leukemia it was 0.419 µM; in the experiment with UACC-257 melanoma, 2.06 µM; in the experiment with UO-31 renal it was 0.259 µM; in the experiment on SF-539 CNS it was 1.02 µM; in the experiment on IGROV1 ovarian, 0.808 µM. Moreover, the GI50 was 1.89 µM in the experiment on MALME-3M melanoma, 0.987 µM with SN12C renal and 1.82 µM in the experiment on HS 578T breast. Also, the TGI with CCRF-CEM leukemia came out at 6.35 µM; in the experiment on SR leukemia it was 5.17 µM; in the experiment on UACC-257 melanoma, 24.1 µM; in the experiment on UO-31 renal, 3.58 µM; in the experiment on SF-539 CNS, 5.6 µM; in the experiment on IGROV1 ovarian it was 14.5 µM. The TGI in the experiment with MALME-3M melanoma was 9.46 µM; in the experiment with SN12C renal it was 20.5 µM; in the experiment on HS 578T breast it was 55.5 µM.
